Measurements reported in the CheMixHub viscosity set.

Test: xn = mol fraction of the nth substance listed

CCCCN + CO
viscosity [mPa·s]
Details	298.15 K	303.15 K	313.15 K	323.15 K
100 kPa, x2 = 0.1	0.505	–	–	–
100 kPa, x2 = 0.203	0.552	–	–	–
100 kPa, x2 = 0.299	0.599	–	–	–
100 kPa, x2 = 0.399	0.653	–	–	–
100 kPa, x2 = 0.501	0.707	–	–	–
100 kPa, x2 = 0.598	0.747	–	–	–
100 kPa, x2 = 0.697	0.761	–	–	–
100 kPa, x2 = 0.796	0.732	–	–	–
100 kPa, x2 = 0.9	0.65	–	–	–
101 kPa, x2 = 0.1159	–	0.47	0.409	0.357
101 kPa, x2 = 0.2309	–	0.494	0.425	0.369
101 kPa, x2 = 0.3289	–	0.518	0.439	0.377
101 kPa, x2 = 0.426	–	0.549	0.458	0.386
101 kPa, x2 = 0.5325	–	0.584	0.482	0.397
101 kPa, x2 = 0.6186	–	0.607	0.498	0.405
101 kPa, x2 = 0.7296	–	0.617	0.508	0.411
101 kPa, x2 = 0.8167	–	0.602	0.502	0.41
101 kPa, x2 = 0.9076	–	0.562	0.481	0.408

O=C(O)C(Cl)(Cl)Cl + CCCCCOC(C)=O
323.15 K, 101 kPa
Details	viscosity [mPa·s]
x2 = 0.2135	3.573
x2 = 0.4325	2.146
x2 = 0.6234	1.358
x2 = 0.8421	0.807

CCC(C)(C)C + CCCCCCCCCCCC
298 K, 101.33 kPa
Details	viscosity [mPa·s]
x1 = 0.0995	1.264
x1 = 0.2015	1.152
x1 = 0.2997	1.056
x1 = 0.3975	0.944
x1 = 0.5013	0.8256
x1 = 0.6011	0.7202
x1 = 0.7	0.6152
x1 = 0.7997	0.5206
x1 = 0.9002	0.4256

CCCCN + CCCCCC
viscosity [mPa·s]
Details	298.15 K	303.15 K	313.15 K
101.3 kPa, x2 = 0.0995	0.4331	–	0.3573
101.3 kPa, x2 = 0.2009	0.4017	–	0.3331
101.3 kPa, x2 = 0.2987	0.3782	–	0.3159
101.3 kPa, x2 = 0.4003	0.3564	–	0.3002
101.3 kPa, x2 = 0.4987	0.3397	–	0.2875
101.3 kPa, x2 = 0.5995	0.3249	–	0.2767
101.3 kPa, x2 = 0.7021	0.3127	–	0.2675
101.3 kPa, x2 = 0.8015	0.3036	–	0.2608
101.3 kPa, x2 = 0.8999	0.2974	–	0.2562
101.33 kPa, x1 = 0.1342	–	0.266	–
101.33 kPa, x1 = 0.2674	–	0.262	–
101.33 kPa, x1 = 0.4006	–	0.245	–
101.33 kPa, x1 = 0.5268	–	0.252	–
101.33 kPa, x1 = 0.6349	–	0.281	–
101.33 kPa, x1 = 0.7491	–	0.318	–
101.33 kPa, x1 = 0.8215	–	0.368	–
101.33 kPa, x1 = 0.9178	–	0.445	–
